The values that follow come from patent EP0333676A2, “Use of 1-(2-ethoxy-2-(3'-pyridyl)ethyl)-4-(2'methoxy-phenyl)piperazine, for the preparation of pharmaceutical compositions useful for the treatment of lower urinary tract disfunctions and benign prostatic hypertrophy” (MALESCI ISTITUTO FARMACOBIOLOGICO S.p.A., priority 1988, dated 1989).

The test system of series [1] is urethane anaesthetized normotensive rats. Description: Hypotensive effect in urethane-anaesthetized normotensive rats. The class given is in vivo, rat. Conditions: i.v. administration. As for the experimental part:
(§1) Male albino rats, Wistar strain, weighting 300-350 g, were treated for 2 weeks with testosterone propionate at the dose of 3 mg/Kg s.c.. Afterwards animals were anaesthetized with urethane 40% s.c. (0.3 ml/hg) and then transvescical cystometrogram were perfused according to the method of Maggi et al. (J. Pharmacol. Meth. 15, 157; 1986). Testosterone-treated animals were characterized by the appearance of frequent, scarcely effective, micturition complexes and by a very high residual volume (about double than controls). […] It is important to underline that in urethane anaesthetized normotensive rats, i.v. administration of compound of invention exerts an hypotensive effect in the range 3-100 ug/kg.

Series [2] deals with alpha₁-adrenoceptor. Nature of the series: Antagonism of the phenylephrine concentration-response curve in isolated rat proximal urethra. As to conditions: versus phenylephrine, compound at 1 nM, rightward parallel displacement of the curve. As for the experimental part: (§2) In the "in vitro" studies, male albino rats, Wistar Nossan strain, weighing 300-350 g were used. Animals were sacrificed by cervical dislocation and the proximal urethra was quickly excised, cleaned of connective tissues and then suspended in an organ bath and tied to an isometric force transducer, under resting tension of 0.5 g. Experiments were performed at 37°C and the bathing medium (gassed with 95% O₂ and 5% CO₂) had the following composition (mM): NaCl 119, KCl 4.7, MgSO₄ 1.5, […], CaCl₂ 2.5, NaHCO₃ 25 and glucose 11. Experiments were carried out after 60 min equilibration period.
(§3) In a first group of experiments a cumulative concentration response curve to alpha₁-adrenoceptor selective agonist, phenylephrine, was obtained in control conditions or in presence of the compound of invention (1 nM). The compound of invention (1 nM) produced a rightward parallel displacement of concentration response curve to phenylephrine with a pA₂ of 9.18±0.12. In another set of experiments urethral contractions were obtained by means of field stimulation (20 Hz, 0.5 msec, maximal voltage; trains of 5 sec every 4 min). These contractions (obtained in a medium additionated with atropine 1 uM) were TTX-sensitive and probably due to stimulation of adrenergic fibers. […]

Series [3] relates to rat chronically treated with testosterone. Description: Transvesical cystometrogram in rats chronically treated with testosterone (urethral outflow obstruction). In kind it is in vivo. Conditions: 0.1-3 ug/Kg i.v.; rats treated for 2 weeks with testosterone propionate 3 mg/Kg s.c.; urethane anaesthesia. How it is done: (§4) In the "vivo" studies two experimental models characterized by urethral outflow obstruction were used: a) rat chronically treated with testosterone and b) rat acutely treated with hexamethonium.
as §1

The subject of series [4] is rat acutely treated with hexamethonium. Description: Transvesical cystometrogram in rats acutely treated with hexamethonium (urethral outflow obstruction). The class given is in vivo. As to conditions: pretreatment at doses lower than 3 ug/Kg i.v. As for the experimental part: as §4
Urethane-anaesthetized male albino rats, Wistar strain weighing 300-350 g, were used.
Administration of hexamethonium (40 mg/Kg i.v.) 5 minutes before start of transvescical cystometrogram produced in about 75% of animals an overflow incontinence coupled to high values of intravescical pressure.

Series [5] concerns isolated urethra of rat. Description: Inhibition of field stimulation-induced contractions of isolated rat proximal urethra. As to conditions: inhibition of urethral contractions by field stimulation (20 Hz, 0.5 msec, maximal voltage), atropine 1 uM in medium, range 1 pM-1 nM, printed interval (0.09-0.18), read-out: EC₅₀. As for the experimental part: as §2, §3

Each structure is given as a SMILES string.

Turning to `CCOC(CN1CCN(c2ccccc2OC)CC1)c1cccnc1` (racemic) [compound of invention, 1-(2-ethoxy-2-(3′-pyridyl)ethyl)-4-(2′-methoxy-phenyl)piperazine], in series [1], the “dose range exerting an hypotensive effect” value was in the range of 3 to 100 µg/kg. The molecule also yielded a pA₂ in series [2] of 9.18±0.12. Further, in series [3], the voiding efficiency result was “clear, objective and prompt beneficial action on the voiding efficiency”. In addition, the intravescical pressure result in series [4] (hexamethonium 40 mg/Kg i.v.) was “lower intravescical pressure values”. In addition, the overflow incontinence entry in series [4] (hexamethonium 40 mg/Kg i.v. (about 75% of animals incontinent without pretreatment)) was “never produced overflow incontinence”. Moreover, the EC50 in series [5] stood at 130 pM.
